Read-outs that look alike come from different tables or passages of the source.
Biological target: T1, human δ802βγ ENaC (Homo sapiens, UniProt P51168+P51170+P51172)
T1 construct: Bioelectric features of full-length human δ802 epithelial sodium channels (ENaC) in Xenopus oocytes; expressed in transfected cells; host or cells: Xenopus laevis oocytes injected with cRNA (pGEM HE vector)
T1 sequence (P51172 1-802): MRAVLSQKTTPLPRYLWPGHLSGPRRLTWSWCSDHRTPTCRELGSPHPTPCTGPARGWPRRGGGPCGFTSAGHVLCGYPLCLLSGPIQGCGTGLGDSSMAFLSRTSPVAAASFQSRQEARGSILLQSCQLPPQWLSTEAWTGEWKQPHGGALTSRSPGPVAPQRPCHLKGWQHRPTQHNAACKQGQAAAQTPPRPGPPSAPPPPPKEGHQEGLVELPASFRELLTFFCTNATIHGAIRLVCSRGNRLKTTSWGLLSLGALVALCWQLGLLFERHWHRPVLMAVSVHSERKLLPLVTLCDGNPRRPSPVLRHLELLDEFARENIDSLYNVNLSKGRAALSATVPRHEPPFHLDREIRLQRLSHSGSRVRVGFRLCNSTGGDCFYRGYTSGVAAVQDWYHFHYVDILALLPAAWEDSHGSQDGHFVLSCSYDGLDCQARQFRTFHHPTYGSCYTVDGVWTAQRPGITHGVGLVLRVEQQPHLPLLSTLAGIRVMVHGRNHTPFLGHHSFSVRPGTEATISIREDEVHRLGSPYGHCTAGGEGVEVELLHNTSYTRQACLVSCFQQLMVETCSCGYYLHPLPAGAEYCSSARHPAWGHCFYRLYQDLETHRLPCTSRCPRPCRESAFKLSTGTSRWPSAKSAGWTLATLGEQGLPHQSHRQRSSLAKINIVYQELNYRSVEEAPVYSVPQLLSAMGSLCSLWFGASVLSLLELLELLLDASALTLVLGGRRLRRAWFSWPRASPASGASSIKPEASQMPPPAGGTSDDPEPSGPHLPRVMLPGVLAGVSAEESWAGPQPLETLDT
T1 sequence (P51168 1-640): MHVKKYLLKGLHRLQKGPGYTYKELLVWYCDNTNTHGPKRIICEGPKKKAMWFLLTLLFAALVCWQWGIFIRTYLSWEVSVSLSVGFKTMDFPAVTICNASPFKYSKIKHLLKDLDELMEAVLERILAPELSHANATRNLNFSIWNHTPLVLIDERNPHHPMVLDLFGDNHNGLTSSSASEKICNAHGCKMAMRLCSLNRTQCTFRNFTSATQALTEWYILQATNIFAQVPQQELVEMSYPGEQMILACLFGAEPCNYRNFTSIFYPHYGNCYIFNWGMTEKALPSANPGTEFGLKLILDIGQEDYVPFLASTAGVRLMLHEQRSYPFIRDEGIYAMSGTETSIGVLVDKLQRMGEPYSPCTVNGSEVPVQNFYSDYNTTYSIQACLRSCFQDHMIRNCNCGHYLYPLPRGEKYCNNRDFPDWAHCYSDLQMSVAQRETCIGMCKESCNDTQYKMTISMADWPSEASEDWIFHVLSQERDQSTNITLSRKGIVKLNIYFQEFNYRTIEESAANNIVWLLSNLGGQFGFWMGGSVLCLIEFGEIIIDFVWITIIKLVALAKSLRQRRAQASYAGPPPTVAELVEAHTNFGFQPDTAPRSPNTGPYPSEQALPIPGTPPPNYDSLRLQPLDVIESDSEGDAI
T1 sequence (P51170 1-649): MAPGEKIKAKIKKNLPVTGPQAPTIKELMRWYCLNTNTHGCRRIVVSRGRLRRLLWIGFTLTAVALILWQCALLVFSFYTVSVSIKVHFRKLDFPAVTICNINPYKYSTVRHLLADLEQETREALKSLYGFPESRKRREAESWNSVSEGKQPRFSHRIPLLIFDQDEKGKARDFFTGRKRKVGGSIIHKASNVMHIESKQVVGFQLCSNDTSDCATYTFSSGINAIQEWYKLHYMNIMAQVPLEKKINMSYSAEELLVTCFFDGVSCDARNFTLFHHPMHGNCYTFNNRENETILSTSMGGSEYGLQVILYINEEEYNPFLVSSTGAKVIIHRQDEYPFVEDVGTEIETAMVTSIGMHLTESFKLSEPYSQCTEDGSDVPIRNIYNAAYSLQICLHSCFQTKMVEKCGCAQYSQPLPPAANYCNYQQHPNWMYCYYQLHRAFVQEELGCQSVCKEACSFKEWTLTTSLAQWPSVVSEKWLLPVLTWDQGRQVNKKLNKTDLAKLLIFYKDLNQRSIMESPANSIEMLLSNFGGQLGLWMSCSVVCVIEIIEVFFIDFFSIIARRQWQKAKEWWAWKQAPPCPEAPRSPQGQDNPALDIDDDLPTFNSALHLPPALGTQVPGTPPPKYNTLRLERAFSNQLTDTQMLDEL
Test: Two-electrode voltage clamp of δ802βγ-ENaC expressed in Xenopus oocytes
Assay type: cell-based
Method: Cloning, in vitro transcription, and heterologous expression of δ802 ENaC and two-electrode voltage clamping assay. δ802 and other ENaC subunits were generated in human ENaC cDNAs cloned into a pGEM HE vector [4], [76]. cRNAs of human α, β, and γ ENaC were prepared as described previously. The stoichiometry of native ENaC complexes is unclear to date. Based on the studies in the last decade, several models have been proposed for αβγ ENaC channels: 1α1β1γ, 2α1β1γ, 3α3β3γ. Based on the EM structure of human αβγ ENaC [35], the currently acceptable model of human αβγ ENaC complexes is heterotrimeric (1α1β1γ). Thus we microinjected δ802:β:γ in a 1:1:1 subunit ratio. Oocytes were surgically removed from appropriately anesthetized adult female Xenopus laevis (Xenopus Express). Briefly, the ovarian tissue was removed from the frog under anesthesia by tricaine-S (Western Chemicals) through a small incision in the lower abdomen. Ovarian lobes were removed and digested in OR-2 calcium-free medium (in mM: 82.5 NaCl, 2.5 KCl, 1.0 MgCl2, 1.0 Na2HPO4, and 10.0 HEPES, pH 7.5) with the addition of 2 mg/ml collagenase (Roche, Indianapolis). Defolliculated oocytes were injected with ENaC cRNAs into the cytosol (25 ng per oocyte in 50 nl of RNase-free water) and incubated in regular OR-2 medium at 18°C. The two-electrode voltage-clamp technique was used to record whole-cell currents 48 h post injection. Oocytes were impaled with two electrodes filled with 3M KCl, having resistance of 0.5 - 2 MΩ. A TEV-200A voltage-clamp amplifier (Dagan) was used to clamp oocytes with concomitant recording of currents. Two reference electrodes were connected to the bath. The continuously perfused bathing solution was ND-96 medium (in mM: 96.0 NaCl, 1.0 MgCl2, 1.8 CaCl2, 2.5 KCl, and 5.0 HEPES, pH 7.5). Whole-cell currents were recorded as previously reported. Experiments were controlled by pCLAMP 10.7 software (Molecular Devices), and currents at -40 mV, -100 mV, and +80 mV were continuously monitored with data recorded at intervals of 10 sec. Data were sampled at the rate of 200 Hz and filtered at 50 Hz.

Molecule `N=C(N)NC(=O)c1nc(Cl)c(N)nc1N` [amiloride] has an IC50 (accumulating doses perfused to oocytes expressing δ802βγ-ENaC, n=17, mean ± s.e.m., SEM, read-out: IC50 value, dose-response curve fitted with the Hill equation) of 1690 ± 300 nM.

In the case of Ac-LRGTLPHPLQRLR-NH2 [α-13 peptide], the “effect on δ802βγ-ENaC activity” value (300 μM, -100 mV, n=5) is reported as “slightly elevated” and the IC50 (oocytes, current at -100 mV, n=3, Chi^2 = 0.77, R^2 = 0.86, legend prints δ802βγ, read-out: IC50, dotted line (for δ802βγ) (Hill equation)) is reported as 40 ± 70 nM.

B1: plasmin: serine protease of the plasmin(ogen) signal pathway for fibrinolysis (protein, UniProt P00747 20-580; P00747 581-810, looked up)
Plasmin heavy chain A: EPLDDYVNTQGASLFSVTKKQLGAGSIEECAAKCEEDEEFTCRAFQYHSKEQQCVIMAENRKSSIIIRMRDVVLFEKKVYLSECKTGNGKNYRGTMSKTKNGITCQKWSSTSPHRPRFSPATHPSEGLEENYCRNPDNDPQGPWCYTTDPEKRYDYCDILECEEECMHCSGENYDGKISKTMSGLECQAWDSQSPHAHGYIPSKFPNKNLKKNYCRNPDRELRPWCFTTDPNKRWELCDIPRCTTPPPSSGPTYQCLKGTGENYRGNVAVTVSGHTCQHWSAQTPHTHNRTPENFPCKNLDENYCRNPDGKRAPWCHTTNSQVRWEYCKIPSCDSSPVSTEQLAPTAPPELTPVVQDCYHGDGQSYRGTSSTTTTGKKCQSWSSMTPHRHQKTPENYPNAGLTMNYCRNPDADKGPWCFTTDPSVRWEYCNLKKCSGTEASVVAPPPVVLLPDVETPSEEDCMFGNGKGYRGKRATTVTGTPCQDWAAQEPHRHSIFTPETNPRAGLEKNYCRNPDGDVGGPWCYTTNPRKLYDYCDVPQCAAPSFDCGKPQVEPKKCPGR
Plasmin light chain B: VVGGCVAHPHSWPWQVSLRTRFGMHFCGGTLISPEWVLTAAHCLEKSPRPSSYKVILGAHQEVNLEPHVQEIEVSRLFLEPTRKDIALLKLSSPAVITDKVIPACLPSPNYVVADRTECFITGWGETQGTFGAGLLKEAQLPVIENKVCNRYEFLNGRVQSTELCAGHLAGGTDSCQGDSGGPLVCFEKDKYILQGVTSWGLGCARPNKPGVYVRVSRFVTWIEGVMRNN
modifications: Plasmin
notes: serine protease of the plasmin(ogen) signal pathway for fibrinolysis
For B1, the “effect of serine protease incubation on δ802βγ activity” value (oocytes, -100 mV, tc-uPA 10 μg/ml, time course in minutes) was “activated the δ802βγ activity in minutes”.

Source: PMC6857051, “Proliferative regulation of alveolar epithelial type 2 progenitor cells by human Scnn1d gene” (Theranostics, 2019)
